Assay results taken from patent US20100311714A1, “1H-IMIDAZO[4,5-c]QUINOLINONE COMPOUNDS” (priority 2009, published 2010).

Experiments:
[1] = tested on: PKB Ser473 phosphorylation in Rat1-myr-HA-p110 alpha cells; assay: Reverse protein array, PKB Ser473 phosphorylation in Rat1-myr-HA-p110 alpha cells; format: cell-based; conditions: Rattus norvegicus, 0.5 h, 30 minutes compound incubation, read-out: p-PKB/IC50_alpha
[2] = tested on: PKB Ser473 phosphorylation in Rat1-myr-HA-p110 delta cells; assay: Reverse protein array, PKB Ser473 phosphorylation in Rat1-myr-HA-p110 delta cells; format: cell-based; conditions: Rattus norvegicus, 0.5 h, 30 minutes compound incubation, read-out: p-PKB/IC50_delta

Structure (SMILES) | IC50 [1] | IC50 [2]
COCCOc1cc(-c2ccc3ncc4c(c3c2)n(-c2ccc(OC)nc2OC)c(=O)n4C)cnc1C [Example 8.9, 1-(2,6-Dimethoxy-pyridin-3-yl)-8-[5-(2-methoxy-ethoxy)-6-methyl-pyridin-3-yl]-3-methyl-1,3-dihydro-imidazo[4,5-c]quinolin-2-one] | 24.9 nM | 74.9 nM
CNc1ncc(-c2ccc3ncc4c(c3c2)n(-c2ccc(F)nc2C)c(=O)n4C)cc1F [Example 7.12, 8-(5-Fluoro-6-methylamino-pyridin-3-yl)-1-(6-fluoro-2-methyl-pyridin-3-yl)-3-methyl-1,3-dihydro-imidazo[4,5-c]quinolin-2-one] | 6.4 nM | 97.8 nM
CCNc1cc(-c2ccc3ncc4c(c3c2)n(-c2ccc(F)nc2C)c(=O)n4C)cnc1CO [Example 7.9, 8-(5-Ethylamino-6-hydroxymethyl-pyridin-3-yl)-1-(6-fluoro-2-methyl-pyridin-3-yl)-3-methyl-1,3-dihydro-imidazo[4,5-c]quinolin-2-one] | < 4.57 nM | 41.5 nM
COc1ccc(-c2ccc3ncc4c(c3c2)n(-c2cccnc2OC)c(=O)n4C)cn1 [Example 1.1, 1-(2-Methoxy-pyridin-3-yl)-8-(6-methoxy-pyridin-3-yl)-3-methyl-1,3-dihydro-imidazo[4,5-c]quinolin-2-one] | 42.9 nM | 53.3 nM
CCNc1cc(-c2ccc3ncc4c(c3c2)n(-c2ccc(OCCOC)nc2C)c(=O)n4C)cnc1C [Example 13.4, 8-(5-Ethylamino-6-methyl-pyridin-3-yl)-1-[6-(2-methoxy-ethoxy)-2-methyl-pyridin-3-yl]-3-methyl-1,3-dihydro-imidazo[4,5-c]quinolin-2-one] | < 4.57 nM | < 4.57 nM
CCOc1ccc(-c2ccc3ncc4c(c3c2)n(-c2ccc(OCCOC)nc2C)c(=O)n4C)cn1 [Example 13.1, 8-(6-Ethoxy-pyridin-3-yl)-1-[6-(2-methoxy-ethoxy)-2-methyl-pyridin-3-yl]-3-methyl-1,3-dihydro-imidazo[4,5-c]quinolin-2-one] | 17 nM | 113 nM
COc1nc(N2CCNCC2)ccc1-n1c(=O)n(C)c2cnc3ccc(-c4cnc(N(C)C)nc4)cc3c21 [Example 9.4, 8-(2-Dimethylamino-pyrimidin-5-yl)-1-(2-methoxy-6-piperazin-1-yl-pyridin-3-yl)-3-methyl-1,3-dihydro-imidazo[4,5-c]quinolin-2-one] | 18 nM | 40.2 nM
COc1ccc(-n2c(=O)n(C)c3cnc4ccc(-c5ccc6nccn6c5)cc4c32)c(OC)n1 [Example 8.10, 1-(2,6-Dimethoxy-pyridin-3-yl)-8-imidazo[1,2-a]pyridin-6-yl-3-methyl-1,3-dihydro-imidazo[4,5-c]quinolin-2-one] | 20.5 nM | 412 nM
COc1ncccc1-n1c(=O)n(C)c2cnc3ccc(-c4cnc(N)c(C(F)(F)F)c4)cc3c21 [Example 1.3, 8-(6-Amino-5-trifluoromethyl-pyridin-3-yl)-1-(2-methoxy-pyridin-3-yl)-3-methyl-1,3-dihydro-imidazo[4,5-c]quinolin-2-one] | 6.94 nM | 15.5 nM
CCOc1cc(-c2ccc3ncc4c(c3c2)n(-c2cccnc2C)c(=O)n4C)cnc1C [Example 2.22, 8-(5-Ethoxy-6-methyl-pyridin-3-yl)-3-methyl-1-(2-methyl-pyridin-3-yl)-1,3-dihydro-imidazo[4,5-c]quinolin-2-one] | 11 nM | 75.7 nM
Cc1ncccc1-n1c(=O)n(C)c2cnc3ccc(-c4cnc5c(ccn5C)c4)cc3c21 [Example 2.14, 3-Methyl-1-(2-methyl-pyridin-3-yl)-8-(1-methyl-1H-pyrrolo[2,3-b]pyridin-5-yl)-1,3-dihydro-imidazo[4,5-c]quinolin-2-one] | 7.38 nM | 61.7 nM
COCCOc1ccc(-n2c(=O)n(C)c3cnc4ccc(-c5cnc(N)c(C(F)(F)F)c5)cc4c32)c(C)n1 [Example 13.2, 8-(6-Amino-5-trifluoromethyl-pyridin-3-yl)-1-[6-(2-methoxy-ethoxy)-2-methyl-pyridin-3-yl]-3-methyl-1,3-dihydro-imidazo[4,5-c]quinolin-2-one] | < 4.57 nM | 29.4 nM
CCOc1ccc(-c2ccc3ncc4c(c3c2)n(-c2cccnc2C)c(=O)n4C)cn1 [Example 2.1, 8-(6-Ethoxy-pyridin-3-yl)-3-methyl-1-(2-methyl-pyridin-3-yl)-1,3-dihydro-imidazo[4,5-c]quinolin-2-one] | 6.31 nM | 96 nM
CNc1ccc(-c2ccc3ncc4c(c3c2)n(-c2ccc(OCCOC)nc2C)c(=O)n4C)cn1 [Example 13.3, 1-[6-(2-Methoxy-ethoxy)-2-methyl-pyridin-3-yl]-3-methyl-8-(6-methylamino-pyridin-3-yl)-1,3-dihydro-imidazo[4,5-c]quinolin-2-one] | 5 nM | 38.5 nM

Results, then the compound that gave them:

IC50 [1] | IC50 [2] | Structure (SMILES)
5.2 nM | 28.2 nM | CNc1cc(-c2ccc3ncc4c(c3c2)n(-c2ccc(C(F)(F)F)nc2C)c(=O)n4C)cnc1CO [Example 33.2, 8-(6-Hydroxymethyl-5-methylamino-pyridin-3-yl)-3-methyl-1-(2-methyl-6-trifluoromethyl-pyridin-3-yl)-1,3-dihydro-imidazo[4,5-c]quinolin-2-one]
40.7 nM | 229 nM | COCCN(C)c1ccc(-n2c(=O)n(C)c3cnc4ccc(-c5cnc(N(C)C)nc5)cc4c32)c(C)n1 [Example 15.5, 8-(2-Dimethylamino-pyrimidin-5-yl)-1-{6-[(2-methoxy-ethyl)-methyl-amino]-2-methyl-pyridin-3-yl}-3-methyl-1,3-dihydro-imidazo[4,5-c]quinolin-2-one]
9 nM | 34.4 nM | Cc1ccc(-n2c(=O)n(C)c3cnc4ccc(-c5cncc(NC(C)C)c5)cc4c32)c(C)n1 [Example 14.8, 1-(2,6-Dimethyl-pyridin-3-yl)-8-(5-isopropylamino-pyridin-3-yl)-3-methyl-1,3-dihydro-imidazo[4,5-c]quinolin-2-one]
5.6 nM | 197 nM | CNc1ccc(-c2ccc3ncc4c(c3c2)n(-c2ccc(NC(=O)COC)nc2C)c(=O)n4C)cn1 [Example 20.4, 2-Methoxy-N-{6-methyl-5-[3-methyl-8-(6-methylamino-pyridin-3-yl)-2-oxo-2,3-dihydro-imidazo[4,5-c]quinolin-1-yl]-pyridin-2-yl}-acetamide]
7.1 nM | 90.7 nM | COc1ccc(-n2c(=O)n(C)c3cnc4ccc(-c5cnc(N(C)C)nc5)cc4c32)c(Cl)n1 [Example 18.3, 1-(2-Chloro-6-methoxy-pyridin-3-yl)-8-(2-dimethylamino-pyrimidin-5-yl)-3-methyl-1,3-dihydro-imidazo[4,5-c]quinolin-2-one]
64.1 nM | 304 nM | CNc1ncc(-c2ccc3ncc4c(c3c2)n(-c2cnc(F)cc2C)c(=O)n4C)cn1 [Example 16.3, 1-(6-Fluoro-4-methyl-pyridin-3-yl)-3-methyl-8-(2-methylamino-pyrimidin-5-yl)-1,3-dihydro-imidazo[4,5-c]quinolin-2-one]
30.7 nM | 408 nM | CNc1ccc(-c2ccc3ncc4c(c3c2)n(-c2cnc(F)cc2C)c(=O)n4C)cn1 [Example 16.4, 1-(6-Fluoro-4-methyl-pyridin-3-yl)-3-methyl-8-(6-methylamino-pyridin-3-yl)-1,3-dihydro-imidazo[4,5-c]quinolin-2-one]
4.9 nM | 14.4 nM | Cc1ccc(-n2c(=O)n(C)c3cnc4ccc(-c5cnc(N)c(C(F)(F)F)c5)cc4c32)c(C)n1 [Example 14.5, 8-(6-Amino-5-trifluoromethyl-pyridin-3-yl)-1-(2,6-dimethyl-pyridin-3-yl)-3-methyl-1,3-dihydro-imidazo[4,5-c]quinolin-2-one]
< 4.57 nM | < 4.57 nM | CCNc1cc(-c2ccc3ncc4c(c3c2)n(-c2ccc(OC)nc2Cl)c(=O)n4C)cnc1C [Example 18.1, 1-(2-Chloro-6-methoxy-pyridin-3-yl)-8-(5-ethylamino-6-methyl-pyridin-3-yl)-3-methyl-1,3-dihydro-imidazo[4,5-c]quinolin-2-one]
< 4.57 nM | < 4.57 nM | CNc1cc(-c2ccc3ncc4c(c3c2)n(-c2ccc(N(C)C)nc2C)c(=O)n4C)cnc1C [Example 19.2, 1-(6-Dimethylamino-2-methyl-pyridin-3-yl)-3-methyl-8-(6-methyl-5-methylamino-pyridin-3-yl)-1,3-dihydro-imidazo[4,5-c]quinolin-2-one]
6.8 nM | 74.7 nM | CCOc1ccc(-c2ccc3ncc4c(c3c2)n(-c2ccc(N(C)C)nc2C)c(=O)n4C)cn1 [Example 19.3, 1-(6-Dimethylamino-2-methyl-pyridin-3-yl)-8-(6-ethoxy-pyridin-3-yl)-3-methyl-1,3-dihydro-imidazo[4,5-c]quinolin-2-one]
90.2 nM | 352 nM | COCC(=O)Nc1ccc(-n2c(=O)n(C)c3cnc4ccc(-c5cncc(OC(C)C)c5)cc4c32)c(C)n1 [Example 20.5, N-{5-[8-(5-Isopropoxy-pyridin-3-yl)-3-methyl-2-oxo-2,3-dihydro-imidazo[4,5-c]quinolin-1-yl]-6-methyl-pyridin-2-yl}-2-methoxy-acetamide]
6.8 nM | 74.5 nM | COc1cc(-c2ccc3ncc4c(c3c2)n(-c2ccc(N(C)C)nc2C)c(=O)n4C)cnc1CO [Example 19.4, 1-(6-Dimethylamino-2-methyl-pyridin-3-yl)-8-(6-hydroxymethyl-5-methoxy-pyridin-3-yl)-3-methyl-1,3-dihydro-imidazo[4,5-c]quinolin-2-one]
5.1 nM | 59.7 nM | COCCN(C)c1ccc(-n2c(=O)n(C)c3cnc4ccc(-c5cncc(N)c5)cc4c32)c(C)n1 [Example 15.8, 8-(5-Amino-pyridin-3-yl)-1-{6-[(2-methoxy-ethyl)-methyl-amino]-2-methyl-pyridin-3-yl}-3-methyl-1,3-dihydro-imidazo[4,5-c]quinolin-2-one]
